The source of these data is patent publication US9192639B1, “Convolvulus extract for treatment of peptic ulcer and helicobacter pylori infection” (KING SAUD UNIVERSITY, priority 2014, dated 2015).

Molecules are shown by their SMILES.

Experiment [1] has as its system H. pylori clinical isolates and reference strain ATCC 43504. Description: Disk diffusion test, anti-Helicobacter pylori activity. Format: cell-based. Also noted: key to Inhibition Zone: *R: Resistant. For orientation: A growth-free zone around the sample is the usual read-out of agar diffusion tests.
The test system of experiment [2] is absolute ethanol-induced ulcer in Wistar rats. Description: Anti-ulcerogenic activity, absolute ethanol-induced ulcer model. Format: in vivo. The settings on record: oral 100 mg/kg; for % Protection: % protection of control ulcer, 100 mg/kg. Here is the method:
Evaluation of the anti-ulcerogenic activity was carried out using an absolute ethanol-induced ulcer model according to published methods. About 30 Wistar rats were divided into 5 groups, each of 6 rats. Group 1 received the vehicle and served as control group. Group 2 received ranitidine (100 mg/kg) and served as a standard group. […] Rats of all groups were fasted for 24 hours, and then all medications were administered orally. […] The stomachs were rapidly removed, opened along their greater curvature, and gently rinsed under running tap water. The number of lesions in the glandular part of the stomach was measured under an illuminated magnifying microscope (10×). Long lesions were counted and their lengths were measured. Petechial lesions were counted, and then each five petechial lesions were taken as 1 mm of ulcer. The mucosal lesions were quantified by the scoring system (0-5), where 0=no damage; 1=Local edema and inflammation without ulcers; 2=One ulcer without inflammation; 3=one to two ulcers with inflammation & lesion diameter <1 cm; 4=More than two ulcers with lesion diameter 1-2 cm; 5=Sever ulceration with lesion diameter >2 cm. To calculate the ulcer index (mm), the sum of the total length of long ulcers and petechial lesions in each group of rats was divided by its number. The curative ratio was determined according to the formula: % Protection of control ulcer=Control UI−Test UI/Control UI×100.

With `CC1(C)S[C@@H]2[C@H](NC(=O)[C@H](N)c3ccc(O)cc3)C(=O)N2[C@H]1C(=O)O` [Amoxicillin], the “Inhibition Zone” value is listed as 30 mm in experiment [1] (H. pylori strain ATCC 43504, disk 30 μg); “R*” in experiment [1] (H. pylori strain KA01, disk 30 μg); “resistant” in experiment [1] (H. pylori strain KA01, disk 30 μg, listed as amoxicillin); 20 mm in experiment [1] (H. pylori strain KA02, disk 30 μg); 21 mm in experiment [1] (H. pylori strain KA03, disk 30 μg); 20 mm in experiment [1] (H. pylori strain KA04, disk 30 μg). In addition, the “Inhibition Zone” value in experiment [1] (H. pylori strain KA05, disk 30 μg) was 22 mm; in experiment [1] (H. pylori strain KA07, disk 30 μg), 25 mm; in experiment [1] (H. pylori strain KAO6, disk 30 μg) it was 23 mm. In addition, in experiment [1] (all isolates with the exception of isolate KA01), the “Susceptibility of H. pylori isolates by disc diffusion” value was “sensitive”.

On to `CC[C@H]1OC(=O)[C@H](C)[C@@H](O[C@H]2C[C@@](C)(OC)[C@@H](O)[C@H](C)O2)[C@H](C)[C@@H](O[C@@H]2O[C@H](C)C[C@H](N(C)C)[C@H]2O)[C@](C)(O)C[C@@H](C)C(=O)[C@H](C)[C@@H](O)[C@]1(C)O` [Erythromycin], for which the “Inhibition Zone” value in experiment [1] (H. pylori strain ATCC 43504, disk 15 μg) was found to be 28 mm; in experiment [1] (H. pylori strain KA01, disk 15 μg), 19 mm; in experiment [1] (H. pylori strain KA02, disk 15 μg) it was 23 mm; in experiment [1] (H. pylori strain KA03, disk 15 μg), 22 mm; in experiment [1] (H. pylori strain KA04, disk 15 μg) it was 22 mm; in experiment [1] (H. pylori strain KA05, disk 15 μg), 20 mm. In addition, the “Inhibition Zone” value in experiment [1] (H. pylori strain KA07, disk 15 μg) is recorded as 23 mm; in experiment [1] (H. pylori strain KAO6, disk 15 μg), 24 mm. Besides, in experiment [1] (all of the isolates of H. pylori), the “Susceptibility of H. pylori isolates by disc diffusion” value is recorded as “sensitive”.

Regarding `CNC(=C[N+](=O)[O-])NCCSCc1ccc(CN(C)C)o1` [Ranitidine], the “% Protection” value in experiment [2] is recorded as 46.2%; in experiment [2] (listed as ranitidine), “about 46.2%”. Besides, the Score in experiment [2] (mucosal lesion scoring system 0-5) amounted to 2.2.
